# Reference: patent US20060069132A1, “Azolecarboxamide herbicides” (priority 2004, published 2006)
# Tests used:
# [1] = test system: small flower umbrella sedge; experiment: Test B flooded paddy test; type: in vivo, Cyperus difformis; conditions: 1000 g ai/ha, visual rating, scale 0 to 100 (0 no effect, 100 complete control), 13 to 15 days
# How it was run: (§1)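 Greenhouse test; postemergence application to plants at 1–4 leaves (2–18 cm); paddy species at 2 leaves; evaluated visually vs controls at 13–15 days; scale 0–100 (100 = complete control).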
# morningglory [2] = experiment: Test A pre-/postemergence herbicide test; type: in vivo, Ipomoea spp.
# How it was run: (§2)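 Greenhouse injury scoring (0–100, complete control = 100) at approximately ten days follows simultaneous pre- and postemergence application. Soil received a directed spray after seeding; seedlings of 2–10 cm at the one- to two-leaf stage were sprayed to runoff.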
# giant foxtail [3] = experiment: Test B pre-/postemergence herbicide test; type: in vivo, Setaria faberi; conditions: for Foxtail, Giant plant response rating: postemergence, scale 0 (no effect) to 100 (complete control)
# How it was run: (§3)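 Herbicidal effect was judged by eye on a 0–100 scale after plants stood 13 to 15 days in the greenhouse following pre- or postemergence treatment with surfactant-containing formulations.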
# redroot pigweed = experiment: Test A pre-/postemergence herbicide test; type: in vivo, Amaranthus retroflexus
# How it was run: as §2
# rice [4] = experiment: Test B pre-/postemergence herbicide test; type: in vivo, Oryza sativa; conditions: 0 = no effect, 100 = complete control, preemergence
# How it was run: as §3
# cocklebur = experiment: Test B pre-/postemergence herbicide test; type: in vivo, Xanthium strumarium; conditions: for Cocklebur plant response rating: postemergence, scale 0 (no effect) to 100 (complete control)
# How it was run: (§4)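 Greenhouse pot assay with simultaneous preemergence (treated seed) and postemergence (2–18 cm seedlings) applications of surfactant-containing, non-phytotoxic solvent formulations. Response scored visually 13–15 days later on a 0–100 scale, 100 meaning complete control.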
# ducksalad = experiment: Test B flooded paddy test; type: in vivo, Heteranthera limosa; conditions: 1000 g ai/ha, visual rating, scale 0 to 100 (0 no effect, 100 complete control), 13 to 15 days
# How it was run: as §1
# large crabgrass [5] = experiment: Test B pre-/postemergence herbicide test; type: in vivo, Digitaria sanguinalis; conditions: for Crabgrass, Large plant response rating: postemergence, scale 0 (no effect) to 100 (complete control)
# How it was run: as §3
# Surinam grass = experiment: Test B pre-/postemergence herbicide test; type: in vivo, Urochloa decumbens; conditions: for Surinam Grass plant response rating: postemergence, scale 0 (no effect) to 100 (complete control)
# How it was run: as §3
# velvetleaf [6] = experiment: Test A pre-/postemergence herbicide test; type: in vivo, Abutilon theophrasti
# How it was run: as §2
# barnyardgrass [7] = experiment: Test A pre-/postemergence herbicide test; type: in vivo, Echinochloa crus-galli
# How it was run: as §2
# barnyardgrass [8] = experiment: Test B flooded paddy test; type: in vivo, Echinochloa crus-galli; conditions: 1000 g ai/ha, visual rating, scale 0 to 100 (0 no effect, 100 complete control), 13 to 15 days
# How it was run: as §1
# large crabgrass [9] = experiment: Test A pre-/postemergence herbicide test; type: in vivo, Digitaria sanguinalis
# How it was run: as §2
# rice [10] = experiment: Test B flooded paddy test; type: in vivo, Oryza sativa; conditions: 1000 g ai/ha, visual rating, scale 0 to 100 (0 no effect, 100 complete control), 13 to 15 days
# How it was run: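 Treated at 2-leaf (paddy) or 1–4-leaf, 2–18 cm (postemergence); greenhouse 13–15 d; visual score vs control, 0 none to 100 complete control; dash = not tested.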
# giant foxtail [11] = experiment: Test A pre-/postemergence herbicide test; type: in vivo, Setaria faberi
# How it was run: as §2
# corn = experiment: Test B pre-/postemergence herbicide test; type: in vivo, Zea mays; conditions: for Corn plant response rating: postemergence, scale 0 (no effect) to 100 (complete control)
# How it was run: as §3
# wheat = experiment: Test B postemergence herbicide test; type: in vivo, Triticum aestivum; parameters: key to Wheat plant response rating: 0 = no effect, 100 = complete control; conditions: postemergence, visual rating, scale 0 (no effect) to 100 (complete control)
# How it was run: (§5)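 Each value is a visual 0–100 response rating taken against controls 13 to 15 days after treatment in the greenhouse. Plants received formulated chemical postemergence at the 1- to 4-leaf stage or, in flooded paddy, at the 2-leaf stage.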
# lambsquarters = experiment: Test B pre-/postemergence herbicide test; type: in vivo, Chenopodium album; conditions: for Lambsquarters plant response rating: postemergence, scale 0 (no effect) to 100 (complete control)
# How it was run: as §3
# wild oat = experiment: Test B postemergence herbicide test; type: in vivo, Avena fatua; conditions: postemergence, visual rating, scale 0 (no effect) to 100 (complete control)
# How it was run: as §5
# barnyardgrass [12] = experiment: Test B pre-/postemergence herbicide test; type: in vivo, Echinochloa crus-galli; conditions: for Barnyardgrass plant response rating: postemergence, scale 0 (no effect) to 100 (complete control)
# How it was run: as §4
# morningglory [13] = experiment: Test B pre-/postemergence herbicide test; type: in vivo, Ipomoea coccinea; conditions: for Morningglory plant response rating: postemergence, scale 0 (no effect) to 100 (complete control)
# How it was run: as §4
# blackgrass = experiment: Test B postemergence herbicide test; type: in vivo, Alopecurus myosuroides; conditions: postemergence, visual rating, scale 0 (no effect) to 100 (complete control)
# How it was run: as §1
# pigweed = experiment: Test B pre-/postemergence herbicide test; type: in vivo, Amaranthus retroflexus; conditions: for Pigweed plant response rating: postemergence, scale 0 (no effect) to 100 (complete control)
# How it was run: as §3
# velvetleaf [14] = experiment: Test B pre-/postemergence herbicide test; type: in vivo, Abutilon theophrasti; conditions: for Velvetleaf plant response rating: postemergence, scale 0 (no effect) to 100 (complete control)
# How it was run: as §3
# [15] = Postemergence, 500 g ai/ha, 0 to 100 scale, 0 no effect, 100 complete control
# [16] = Postemergence, 2000 g ai/ha, 0 to 100 scale, 0 no effect, 100 complete control
# [17] = Preemergence, 2000 g ai/ha, visual rating, 0 to 100 scale (0 no effect, 100 complete control)
# [18] = preemergence, 500 g ai/ha, visual injury, 0 to 100 scale (0 no effect, 100 complete control)
# [19] = 125 g ai/ha, 0 = no effect, 100 = complete control, preemergence
# [20] = 500 g ai/ha, visual rating, 0 = no effect, 100 = complete control, preemergence
smiles,measurement,setting,value
CCc1nc(C(C)(C)C)sc1C(=O)Nc1cccc(C(=O)N(CC)CC)n1 [Compound 214],"Sedge, Umbrella plant response rating",[1],50
same,Morningglory plant response rating,morningglory [2]; [15],0
same,"Plant response rating, Morningglory",morningglory [2]; [16],10
same,Morningglory plant response rating,morningglory [2]; [17],30
same,Morningglory plant response rating,morningglory [2]; [18],5
same,"Foxtail, Giant plant response rating (0 to 100 scale)",giant foxtail [3]; [19],0
same,"Plant response rating, Foxtail, Giant",giant foxtail [3]; [20],90
same,"Foxtail, Giant plant response rating","giant foxtail [3]; 125 g ai/ha, visual rating",0
same,"Foxtail, Giant plant response rating","giant foxtail [3]; 500 g ai/ha, visual rating",20
same,Pigweed plant response rating,redroot pigweed; [15],20
same,"Plant response rating, Pigweed",redroot pigweed; [16],50
same,Pigweed plant response rating,redroot pigweed; [17],95
same,Pigweed plant response rating,redroot pigweed; [18],20
same,Rice plant response rating (0 to 100 scale),rice [4]; 125 g ai/ha,0
same,"Plant response rating, Rice","rice [4]; 500 g ai/ha, visual rating",0
same,Cocklebur plant response rating (0 to 100 scale),cocklebur; [19],0
same,"Plant response rating, Cocklebur",cocklebur; [20],0
same,Cocklebur plant response rating,"cocklebur; 125 g ai/ha, visual rating",0
same,Cocklebur plant response rating,"cocklebur; 500 g ai/ha, visual rating",0
same,Ducksalad plant response rating,ducksalad,30
same,"Crabgrass, Large plant response rating (0 to 100 scale)",large crabgrass [5]; [19],0
same,"Plant response rating, Crabgrass, Large",large crabgrass [5]; [20],70
same,"Crabgrass, Large plant response rating","large crabgrass [5]; 125 g ai/ha, visual rating",0
same,"Crabgrass, Large plant response rating","large crabgrass [5]; 500 g ai/ha, visual rating",0
same,Surinam Grass plant response rating (0 to 100 scale),Surinam grass; [19],0
same,"Plant response rating, Surinam Grass",Surinam grass; [20],30
same,Surinam Grass plant response rating,"Surinam grass; 125 g ai/ha, visual rating",0
same,Surinam Grass plant response rating,"Surinam grass; 500 g ai/ha, visual rating",10
same,Velvetleaf plant response rating,velvetleaf [6]; [15],15
same,"Plant response rating, Velvetleaf",velvetleaf [6]; [16],20
same,Velvetleaf plant response rating,velvetleaf [6]; [17],20
same,Velvetleaf plant response rating,velvetleaf [6]; [18],5
same,Barnyardgrass plant response rating,barnyardgrass [7]; [15],0
same,"Plant response rating, Barnyardgrass",barnyardgrass [7]; [16],15
same,Barnyardgrass plant response rating,barnyardgrass [7]; [17],30
same,Barnyardgrass plant response rating,barnyardgrass [7]; [18],0
same,Barnyardgrass plant response rating,barnyardgrass [8],0
same,"Crabgrass, Large plant response rating",large crabgrass [9]; [15],5
same,"Plant response rating, Crabgrass, Large",large crabgrass [9]; [16],10
same,"Crabgrass, Large plant response rating",large crabgrass [9]; [17],65
same,"Crabgrass, Large plant response rating",large crabgrass [9]; [18],55
same,Rice plant response rating,rice [10],0
same,"Foxtail, Giant plant response rating",giant foxtail [11]; [15],15
same,"Plant response rating, Foxtail, Giant",giant foxtail [11]; [16],40
same,"Foxtail, Giant plant response rating",giant foxtail [11]; [17],55
same,"Foxtail, Giant plant response rating",giant foxtail [11]; [18],60
same,Corn plant response rating (0 to 100 scale),corn; [19],0
same,"Plant response rating, Corn",corn; [20],0
same,Corn plant response rating,"corn; 125 g ai/ha, visual rating",0
same,Corn plant response rating,"corn; 500 g ai/ha, visual rating",20
same,Wheat plant response rating,wheat; 125 g ai/ha,0
same,Wheat plant response rating,wheat; 500 g ai/ha,0
same,Lambsquarters plant response rating (0 to 100 scale),lambsquarters; [19],0
same,"Plant response rating, Lambsquarters",lambsquarters; [20],80
same,Lambsquarters plant response rating,"lambsquarters; 125 g ai/ha, visual rating",0
same,Lambsquarters plant response rating,"lambsquarters; 500 g ai/ha, visual rating",0
same,"Oat, Wild plant response rating",wild oat; 125 g ai/ha,0
same,"Oat, Wild plant response rating",wild oat; 500 g ai/ha,0
same,Barnyardgrass plant response rating (0 to 100 scale),barnyardgrass [12]; [19],0
same,"Plant response rating, Barnyardgrass",barnyardgrass [12]; [20],20
same,Barnyardgrass plant response rating,"barnyardgrass [12]; 125 g ai/ha, visual rating",0
same,Barnyardgrass plant response rating,"barnyardgrass [12]; 500 g ai/ha, visual rating",0
same,Morningglory plant response rating (0 to 100 scale),morningglory [13]; [19],0
same,"Plant response rating, Morningglory",morningglory [13]; [20],0
same,Morningglory plant response rating,"morningglory [13]; 125 g ai/ha, visual rating",0
same,Morningglory plant response rating,"morningglory [13]; 500 g ai/ha, visual rating",0
same,Blackgrass plant response rating,blackgrass; 125 g ai/ha,0
same,Blackgrass plant response rating,blackgrass; 500 g ai/ha,0
same,Pigweed plant response rating (0 to 100 scale),pigweed; [19],0
same,"Plant response rating, Pigweed",pigweed; [20],100
same,Pigweed plant response rating,"pigweed; 125 g ai/ha, visual rating",0
same,Pigweed plant response rating,"pigweed; 500 g ai/ha, visual rating",0
same,Velvetleaf plant response rating (0 to 100 scale),velvetleaf [14]; [19],0
same,"Plant response rating, Velvetleaf",velvetleaf [14]; [20],0
same,Velvetleaf plant response rating,"velvetleaf [14]; 125 g ai/ha, visual rating",0
same,Velvetleaf plant response rating,"velvetleaf [14]; 500 g ai/ha, visual rating",10
